From patent US8097650B2, “Method of treating a condition associated with phosphorylation of TASK-1” (The Trustees of Columbia University In The City of New York, priority 2005, dated 2012)

Legend:
[1] = test system: mouse ventricular myocytes; assay: Repolarization abnormalities in mouse ventricular myocytes paced at 1 Hz with PKCε peptides; format: cell-based
Experimental: Mouse ventricular myocytes were isolated using a retrograde coronary perfusion method previously published (Kuznetsov V et al. (1995) Circ Res 76: 40-52). All the experiments were carried out according to the guidelines issued by the IACUC of Columbia University. Adult mice 2 or 3 months old, were anaesthetized with a xylazine and ketamine mix and heparinized, the heart was quickly removed and the ascending aorta was connected to the outlet of a Langendorff column and perfused with 20-25 ml of a buffer solution (37° C.) containing (mM):NaCl, 112; KCl, 5.4; NaHCO3, 4.2; MgCl2, 1.6; HEPES, 20; glucose, 5.4; NaH2PO4, 1.7; taurine, 10; L-glutamine, 4.1; MEM amino acids solution, 2%; MEM vitamin solution, 1%; adjusted to pH 7.4, and equilibrated with 100% O2. Next, the heart was perfused with an enzyme solution containing collagenase (0.2 mg/ml; Worthington Type II) and trypsin (0.04 mg/ml) at 35° C. for 10-12 min. After this perfusion, the atria were removed and the ventricles minced and transferred to a 50 ml flask with an enzyme solution containing collagenase (0.45 mg/ml), trypsin (0.08 mg/ml), Ca^2+ (0.75 mM) and bovine serum albumin (BSA; 4.8 mg/ml). The flask was shaken vigorously for 5-10 min at 32° C. before the supernatant was removed and the cells were collected by centrifugation, this operation was repeated two or three times and additional disaggregated cells were collected. After centrifugation, the myocytes were resuspended in the buffer solution containing Ca^2+ (0.75 mM) and BSA and stored at room temperature until use. Rod-shaped, Ca^2+-tolerant myocytes, obtained with this procedure, were used within 6 h of dissociation. Measurements were performed only on quiescent myocytes with clear striations
The myocyte suspension or the coverslip with CHO cells was placed into a perfusion chamber, mounted on the stage of an inverted microscope. Unless otherwise indicated, CHO cells were superfused at room temperature with standard external Tyrode's buffer, containing (mM): NaCl, 140; KCl, 5.4; CaCl2, 1; MgCl2, 1; HEPES, 5; glucose, 10; adjusted to pH 7.4. Recordings were begun after the current reached a stable baseline (usually 3 to 4 min after initial cell rupture). In myocytes, TASK-1 current is small and exists in the presence of numerous larger K^+ currents. In order to increase the inward component of TASK-1 current and to block other potassium currents in myocytes, a modified high K^+ external solution (modified Tyrode's) was used to reduce outward rectification of TASK-1 current. The composition of this solution-was (in mM): NaCl, 100; KCl, 50; CaCl2, 1; MgCl2, 1; HEPES, 5; glucose, 10; tetraethylammonium (TEA), 1; CsCl, 5; adjusted to pH 7.4. Membrane potential and current were measured in the whole cell configuration using borosilicate glass pipettes with a tip resistance between […] and filled with a pipette solution containing (mM): aspartic acid, 130; KOH, 146; NaCl, 10; CaCl2, 2; EGTA, 5; HEPES, 10; MGATP, 2; pH 7.2. The stock solutions of C-PAF and of the PKC inhibitor, bisindolylmaleimide (BIM-I; Calbiochem), were prepared in water and diluted to the final concentrations in Tyrode's or modified Tyrode's, as appropriate. The PKC activator, PMA, was prepared in DMSO and then diluted in Tyrode's. […] Myocytes treated with the peptides were monitored continuously beginning immediately after rupture to detect the occurrence of any arrhythmias during dialysis of the peptide. Application of C-PAF to cells treated with the inhibitor peptide was started after the peptide had been permitted to dialyse into the cell (8-10 min after rupture for CHO or 10-12 min after rupture for myocytes).
The current and the voltage protocols were generated using Clampex 8.0 software applied by means of an Axopatch 200-B and a Digidata 1200 interface (Axon Instruments). In current clamp mode, for recording action potentials, the signals were filtered at 1 KHz (low pass Bessel filter) and acquired at a sampling rate of 5 KHz. […]

[2] = test system: murine ventricular myocytes; assay: Arrhythmias induced by PKCε activator peptide in murine ventricular myocytes, rescue by TREK-1 activators; format: cell-based, mouse
Experimental: FIGS. 23A-23D. Activation of TREK-1 can overcome arrhythmias induced by inhibition of TASK-1. Isolated murine ventricular myocytes were studied in current clamp mode and paced at 1 Hz. The cells were studied in regular Tyrode's, pH 7.4. Recordings were begun immediately after rupture and continued for 12-15 min, with the 5.5 min time point illustrated. A PKCε-specific activator peptide (100 nM) was included in the patch pipette, which lead to inhibition of TASK-1 current and repolarization abnormalities (23A and 23B).
FIG. 25. Activation of TREK-1 can overcome arrhythmias induced by inhibition of TASK-1. Isolated murine ventricular myocytes were studied in current clamp mode and paced at 1 Hz. The cells were studied in regular Tyrode's, pH 7.4. Recordings were begun immediately after rupture and continued for 12-15 min. A PKCε-specific activator peptide (100 nM) […] or a scrambled control peptide (100 nM) (25A) was included in the patch pipette. After the activator peptide had induced repolarization abnormalities (25B left panel), a TREK-1 activator, ONO-RS-082 (100 nM) was added to the superfusion.
Isolated murine ventricular myocytes were studied in current clamp mode and paced at 1 Hz. The cells were studied in regular Tyrode's, pH 7.4, and recordings were begun immediately after rupture and continued for 12-15 min, with the 5.5 min timepoint illustrated. As shown in FIGS. 23A and 23B, a PKCε-specific activator peptide (100 nM) was included in the patch pipette which lead to inhibition of TASK-1 current and repolarization abnormalities.

hTASK-1 = molecular target: T1, hTASK-1 (Homo sapiens, UniProt O14649); assay: hTASK-1 current in CHO cells (ramp clamp, pH 8); format: cell-based; settings: Tyrode's pH 8; read-out: EC50 for activation of TASK-1 current
T1 construct: expressed in transfected cells; host or cells: CHO cells
T1 sequence (O14649 whole entry): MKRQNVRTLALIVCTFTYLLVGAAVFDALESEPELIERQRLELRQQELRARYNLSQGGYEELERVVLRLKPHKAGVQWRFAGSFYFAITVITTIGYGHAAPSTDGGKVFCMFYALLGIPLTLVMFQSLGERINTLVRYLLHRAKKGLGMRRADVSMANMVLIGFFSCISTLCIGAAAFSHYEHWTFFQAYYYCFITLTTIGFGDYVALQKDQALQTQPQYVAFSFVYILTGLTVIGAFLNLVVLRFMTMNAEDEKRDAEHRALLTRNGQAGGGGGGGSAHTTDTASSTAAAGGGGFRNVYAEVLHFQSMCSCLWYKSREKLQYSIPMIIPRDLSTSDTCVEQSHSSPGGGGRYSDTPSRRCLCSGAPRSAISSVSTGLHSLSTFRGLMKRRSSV
Experimental: FIG. 21. CHO cells (hTREK-1, hTASK-1) or HEK cells (mTRAAK) were co-transfected with plasmids encoding one of the two pore domain channels and GFP using the GeneJammer reagent. After 48-60 h, the expressed current was measured using a ramp protocol while the cells were perfused with regular Tyrode's solution containing varying concentrations of ONO-RS-082 (range of concentration from 10 nM to 500 μM as noted in FIG. 21) until a steady state was reached. Each cell was exposed to only one concentration of drug. Panel A: TREK-1 current was determined using a ramp clamp, and the percent increase induced by ONO-RS-082 was measured at the most positive imposed voltage (n≧5). The EC50 for activation was around 3 μM and the basal and ONO-activated current densities are noted. Panel B: TASK-1 current was determined using a ramp clamp in Tyrode's solution at pH=8 and the percent increase induced by ONO-RS-082 was measured at the most positive imposed voltage (n≧4). The EC50 was around 8 μM and the basal and ONO-activated current densities are noted. Panel C: TRAAK current was determined using a ramp clamp, and the percent increase induced by ONO-RS-082 was measured at the most positive imposed voltage (n≧4). The EC50 was around 0.9 μM and the basal and ONO-activated current densities are noted.

With `CCCCCCCCCCCCCCCCOC[C@H](COP(=O)([O-])OCC[N+](C)(C)C)OC(=O)NC` [C-PAF, carbamyl-platelet-activating factor] the “cells with repolarization abnormalities” value ([1]; C-PAF 2 min, no peptide in pipette) was 5 of 7, the repolarization abnormalities ([1]; C-PAF, PKCε-specific inhibitor peptide 100 nM in pipette) was “failed to induce repolarization abnormalities in any of the 8 cells” and the “cells with abnormalities during repolarization” value ([1]; C-PAF, scrambled peptide 100 nM in pipette) was 14 of 19.
With `CCCCCc1ccc(C=CC(=O)Nc2cc(Cl)ccc2C(=O)O)cc1` [ONO-RS-082] the “effect on established peptide-induced arrhythmia” value ([2]; ONO-RS-082 100 nM in superfusion) was “promptly reversed the arrhythmia”, the “rhythm after washout of drug” value ([2]; ONO-RS-082 removed) was “the arrhythmias recurred” and the EC50 (hTASK-1) was about 8 µM.
